Experimental data as given in PubChem BioAssay AID2060898 (Molecular Pharmacology Branch, DTP, NCI, 2025).

System: 616215-338-R-J1-PDC complex spheroid viability
Assay: Anticancer human tumor 616215-338-R-J1-PDC patient-derived colon adenocarcinoma cell line growth inhibition [RAS]
Details: for IC50: curve of first compound; for viability, T/C: stronger effect = lower value
Text: RAS pathway inhibitors in Combinations in Complex Spheroids
A high-throughput screen of multi-cell type tumor spheroids was designed to identify active combinations of RAS pathway inhibitors and targeted small molecules. Complex spheroids include a stromal component modeled by human endothelial cells (HUVEC) and fibroblasts modeled by human mesenchymal stem cells (MSCs). The concentration ranges selected for each drug and investigational agent were based upon clinically achievable concentrations if the clinical Cmax of the agent was known.
Compounds. The drugs and investigational agents: abemaciclib (NSC768073), cobimetinib (NSC768068), divarasib (GDC6063, NSC841802), docetaxel (NSC628503), GDC-1971 (RLY-1971, NSC841576), gemcitabine (NSC613327), inavolisib (NSC800729), ipatasertib (NSC767898), KB-0742 (NSC834161), MRTX-1133 (NSC836407), osimertinib (NSC779217), RMC-4630 (NSC839698), RMC-6236 (NSC851965), RMC-6291 (NSC852671), Ro-3306 (NSC812927), sapanisertib (NSC764658), SN-38 (NSC673596), staurosporine (NSC755774), SY5609 (NSC837396), and tovorafenib (DAY101, NSC766906), were obtained from the National Cancer Institute (NCI) Developmental Therapeutics Program Chemical Repository. The FDA-approved anticancer drug set is available from the NCI Developmental Therapeutics Program. […] The stock solutions were prepared in dimethyl sulfoxide (DMSO, Sigma-Aldrich, St. Louis, MO, cat. D2650) at 800-fold the tested concentration and stored at -70 degrees C prior to their use. All drugs and investigational agents were tested over a range starting from a high concentration at or near the clinical Cmax and decreasing in half-log increments. If the clinical Cmax for an agent had not been determined, the highest concentration tested was 10 microM.
Cell Culture. All cells were maintained in an incubator at 37 degrees C and 5% CO2 with 95% humidity. The PDC lines were cultured according to standard operating procedures established by the NCI PDMR. All PDCs were thawed and cultured in Matrigel-coated flasks prepared with a working solution of 1X Ham's F-12 nutrient mix, without supplementation (Invitrogen, Waltham, MA, cat. 11765054), 100 U/mL penicillin-streptomycin (Invitrogen, cat. 15140122), and 2.5% Matrigel (Corning Inc., Corning, NY, cat. 354248) for the first three passages. The 362531-283-R-J2-PDC and 782815-120-R-J1-PDC lines were cultured in 6C/Colon 1B media, which includes advanced DMEM/F-12 (Thermo Fisher Scientific, cat. 12634028), 10 mM HEPES (Thermo Fisher Scientific, cat. 15630080), 1X GlutaMAX supplement (Thermo Fisher Scientific, cat. 35050061), 0.1 mg/mL primocin (InvivoGen, San Diego, CA, cat. ant-pm-2), 10% defined fetal bovine serum, heat inactivated (HyClone Laboratories Inc., Logan, UT, cat. SH30070.03HI), 50% L-WRN conditioned media (ATCC, cat. CRL-3276), 1.25 mM N-Acetyl-L-cysteine (Sigma-Aldrich, cat. A9165), 10 mM nicotinamide (Sigma-Aldrich, cat. N0636), 1X B-27 supplement (Thermo Fisher Scientific, cat. 17504044), 1X N-2 supplement (Thermo Fisher Scientific, cat. 17502048), 50 ng/mL human EGF (Thermo Fisher Scientific, cat. PHG0311), and 10 microM Y-27632 dihydrochloride (Tocris Bioscience, cat. 1254). The K12877-001-R-J1-PDC line was cultured in 6I media, which includes all 6C/Colon 1B media plus 10 ng/mL human FGF-10 (PeproTech, cat. 100-26), 1 ng/mL human FGF-2 (PeproTech, cat. 100-18B), 1 µM prostaglandin E2 (Tocris Bioscience, cat. 2296), […] hydrocortisone (Sigma-Aldrich, cat. H4001), and […] bovine insulin (Sigma-Aldrich, cat. I6634). The K86415-001-R-J1-PDC line was cultured in 6D media, which includes all 6C/Colon 1B media components minus the L-WRN conditioned media. The 485176-168-R4-J1-PDC was cultured in PANC media, which includes all 6C/Colon 1B media plus 100 ng/mL human FGF-10 (PeproTech, cat. 100-26), 500 nM SB-431542 (Selleckchem, cat. S1067), and 10 nM gastrin (Tocris Bioscience, cat. 3006). […]

[1] = second compound 0.0316 µM, first compound 0.00316 µM
[2] = second compound 0.0316 µM, first compound 0.01 µM
[3] = second compound 0.0316 µM, first compound 0.0316 µM
[4] = second compound 0.0316 µM, first compound 0.1 µM
[5] = second compound 0.0316 µM, first compound 0.316 µM
[6] = second compound 0.0316 µM, first compound 1 µM
[7] = second compound 0.1 µM, first compound 0.00316 µM
[8] = second compound 0.1 µM, first compound 0.01 µM
[9] = second compound 0.1 µM, first compound 0.0316 µM
[10] = second compound 0.1 µM, first compound 0.1 µM
[11] = second compound 0.1 µM, first compound 0.316 µM
[12] = second compound 0.1 µM, first compound 1 µM
[13] = second compound 0.316 µM, first compound 0.00316 µM
[14] = second compound 0.316 µM, first compound 0.01 µM
[15] = second compound 0.316 µM, first compound 0.0316 µM
[16] = second compound 0.316 µM, first compound 0.1 µM
[17] = second compound 0.316 µM, first compound 0.316 µM
[18] = second compound 0.316 µM, first compound 1 µM
[19] = second compound 1 µM, first compound 0.00316 µM
[20] = second compound 1 µM, first compound 0.01 µM
[21] = second compound 1 µM, first compound 0.0316 µM
[22] = second compound 1 µM, first compound 0.1 µM
[23] = second compound 1 µM, first compound 0.316 µM
[24] = second compound 1 µM, first compound 1 µM
[25] = second compound 3.16 µM, first compound 0.00316 µM
[26] = second compound 3.16 µM, first compound 0.01 µM
[27] = second compound 3.16 µM, first compound 0.0316 µM
[28] = second compound 3.16 µM, first compound 0.1 µM
[29] = second compound 3.16 µM, first compound 0.316 µM
[30] = second compound 3.16 µM, first compound 1 µM
[31] = second compound 10 µM, first compound 0.00316 µM
[32] = second compound 10 µM, first compound 0.01 µM
[33] = second compound 10 µM, first compound 0.0316 µM
[34] = second compound 10 µM, first compound 0.1 µM
[35] = second compound 10 µM, first compound 0.316 µM
[36] = second compound 10 µM, first compound 1 µM
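Note: spheroids exposed to agents for seven days before viability readout.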
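Throughout, for viability, T/C: 100% = DMSO vehicle control viability.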

C=CC(=O)Nc1cc(Nc2nccc(-c3cn(C)c4ccccc34)n2)c(OC)cc1N(C)CCN(C)C + C#Cc1c(F)ccc2cc(O)cc(-c3ncc4c(N5CC6CCC(C5)N6)nc(OCC56CCCN5CC(F)C6)nc4c3F)c12
IC50 (second compound 0.0316 µM): > 1000 nM | IC50 (second compound 0.1 µM): > 1000 nM | IC50 (second compound 0.316 µM): 846 nM | IC50 (second compound 1 µM): 587 nM | IC50 (second compound 3.16 µM): 150 nM | IC50 (second compound 10 µM): 150 nM | viability, T/C [1]: 101% | viability, T/C [2]: 109% | viability, T/C [3]: 101% | viability, T/C [4]: 106% | viability, T/C [5]: 98.1% | viability, T/C [6]: 68.4% | viability, T/C [7]: 106% | viability, T/C [8]: 108% | viability, T/C [9]: 104% | viability, T/C [10]: 110% | viability, T/C [11]: 115% | viability, T/C [12]: 74.5% | viability, T/C [13]: 114% | viability, T/C [14]: 110% | viability, T/C [15]: 109% | viability, T/C [16]: 109% | viability, T/C [17]: 93.2% | viability, T/C [18]: 42.7% | viability, T/C [19]: 112% | viability, T/C [20]: 109% | viability, T/C [21]: 117% | viability, T/C [22]: 82.4% | viability, T/C [23]: 75.5% | viability, T/C [24]: 31.4% | viability, T/C [25]: 104% | viability, T/C [26]: 124% | viability, T/C [27]: 79.8% | viability, T/C [28]: 59.6% | viability, T/C [29]: 42.2% | viability, T/C [30]: 35.9% | viability, T/C [31]: 67.2% | viability, T/C [32]: 71.2% | viability, T/C [33]: 62.2% | viability, T/C [34]: 56.5% | viability, T/C [35]: 39.4% | viability, T/C [36]: 21.7%

O=C(c1ccc(F)c(F)c1Nc1ccc(I)cc1F)N1CC(O)([C@@H]2CCCCN2)C1 + C#Cc1c(F)ccc2cc(O)cc(-c3ncc4c(N5CC6CCC(C5)N6)nc(OCC56CCCN5CC(F)C6)nc4c3F)c12
IC50 (second compound 0.0316 µM): 87.7 nM | IC50 (second compound 0.1 µM): 75.4 nM | IC50 (second compound 0.316 µM): 55.9 nM | IC50 (second compound 1 µM): 30.5 nM | IC50 (second compound 3.16 µM): 19 nM | IC50 (second compound 10 µM): < 3.16 nM | viability, T/C [1]: 112% | viability, T/C [2]: 98% | viability, T/C [3]: 83.8% | viability, T/C [4]: 47.4% | viability, T/C [5]: 12.5% | viability, T/C [6]: 5.72% | viability, T/C [7]: 114% | viability, T/C [8]: 112% | viability, T/C [9]: 85.1% | viability, T/C [10]: 39.3% | viability, T/C [11]: 10% | viability, T/C [12]: 6.39% | viability, T/C [13]: 124% | viability, T/C [14]: 111% | viability, T/C [15]: 73.6% | viability, T/C [16]: 25.3% | viability, T/C [17]: 13% | viability, T/C [18]: 5.14% | viability, T/C [19]: 115% | viability, T/C [20]: 96.3% | viability, T/C [21]: 44.3% | viability, T/C [22]: 24.3% | viability, T/C [23]: 8.74% | viability, T/C [24]: 5.44% | viability, T/C [25]: 75.3% | viability, T/C [26]: 64.9% | viability, T/C [27]: 36.6% | viability, T/C [28]: 23.4% | viability, T/C [29]: 7.41% | viability, T/C [30]: 3.17% | viability, T/C [31]: 48.8% | viability, T/C [32]: 35.3% | viability, T/C [33]: 24.3% | viability, T/C [34]: 14.4% | viability, T/C [35]: 1.94% | viability, T/C [36]: 1.77%
